Data on 1 compound can be found in patent publication US20260232767A1, “INTERLEUKIN-23 RECEPTOR ANTAGONIST PEPTIDES FOR USE IN THE TREATMENT OF PSORIASIS” (Janssen Pharmaceutica NV, priority 2023, published 2026).

The test system of this assay is IL-17A. The experiment in a line: Serum IL-17A immunoassay. Format: in vivo, human. The conditions noted are these: all treatment groups relative to placebo. On the procedure:
To evaluate psoriasis relevant systemic biomarkers (Beta-defensin 2 (BD-2), IL-17A, IL-17F, and IL-22), protein concentrations were measured in serum using validated immunoassays. The IL-17A (Catalog #03-0159-00) and IL-17F (Catalog #03-0164-00) assays used are commercially available SMC™-based high sensitivity immunoassays produced by the EMD Millipore Corporation. The manufacturer's protocols were followed and analyzed on the Erenna® instrument platform except for the use of 11 μL Elution Buffer B. While the IL-22 assay is also based on the SMC™ platform and run on the Erenna instrument, the assay was developed internally as a coated plate-based assay. The development and optimization of the BD-2 assay was done on the Meso Scale Discovery on the electrochemiluminescence-based platform, a division of Meso Scale Diagnostics LLC (MSD). For all assays, concentration adjustments were made to values measuring below empirically defined LLOQ or empirically defined ULOQ values. Assay QC verified performance of generated standard curves (average concentration recovery & CV of technical replicates) and control samples (inter-assay plate agreement (CV)).
Serum levels of psoriasis disease biomarkers BD-2, IL-22, IL-17A, and IL-17F relative to baseline were analyzed in patients who received placebo or the compound of Formula (I) and compared to clinical response. […]

Turning to `CC(=O)NCCCC[C@@H]1NC(=O)[C@H](Cc2c[nH]c3c(C)cccc23)NC(=O)[C@H]([C@@H](C)O)NC(=O)[C@H](CC(N)=O)NC(=O)[C@@H](NC(C)=O)C(C)(C)SSC(C)(C)[C@@H](C(=O)N[C@@H](Cc2ccc(OCCN)cc2)C(=O)N[C@@H](Cc2ccc3ccccc3c2)C(=O)NC2(C(=O)N[C@@H](CCC(=O)O)C(=O)N[C@@H](CC(N)=O)C(=O)N[C@@H](Cc3cccnc3)C(=O)N(C)CC(N)=O)CCOCC2)NC1=O` [IL-23 receptor antagonist peptide, Ac-[Pen]*-N-T-[W(7-Me)]-[Lys(Ac)]-[Pen]*-Phe[4-(2-aminoethoxy)]-[2-Nal]-[THP]-E-N-[3-Pal]-Sarc-NH2 (*[Pen]-[Pen]* formdisulfidebond)], the IL-17A serum levels entry was “Statistically significant reductions”.
